# Laboratory results published in patent US20150110847A1, “Substrate Mediated Enzymes Prodrug Therapy” (Aarhus Universitet, priority 2012, published 2015).
# Read-outs that look alike come from different tables or passages of the source.
# How the values were obtained:
# HepG2 [1] = assay: SMEPT using static cell culture on LbL films, PrestoBlue cell viability (FIG. 21)
# Protocol: Glass cover-slips. LbL assembly of PMA and PLL with incorporated enzyme was performed on glass cover-slips to evaluate the therapeutic effect of SN-38 under static conditions. Glass cover slips of 9 mm were sonicated in ethanol for 10 minutes, rinsed with ultrapure water, and dried with argon prior to UV sterilization for 20 minutes in a 48 well plate. Solutions of PLL and PMA, were incubated at 37° C. for 10 min prior to film assembly. Alternating layers were composed as (PLL/PMA)2.5-b-glucuronidase-(PMA/PLL)2 or […] for films without enzyme. Each layer was allowed to adsorb for 10 min at 37° C. followed by a washing step in HEPES buffer. The enzyme b-glucuronidase was added at a concentration of 20 μg/mL in HEPES buffer solution.
# (§1) Cell Culture. The hepatocellular carcinoma cell line (HepG2) was used for all cell experiments. HEPG2 were cultured in a 75 cm^2 culture flask (3E6 cells/flask) in 10 mL medium (Minimum Essential Medium Eagle (MEME) supplemented with 10% fetal bovine serum (FCB), 1% penicillin and streptomycin, 1% non-essential amino acids, and 2 mM L-glutamine) and incubated at 37° C. and 5% CO2.
# Static cell culture. The LbL coated glass slides were UV sterilized for 10 minutes prior to cell seeding. HepG2 cells with a starting density of 75.000 cells in 300 μL were seeded per well. The cells were allowed to adhere overnight before adding the (pro)drug SN-38 of 1 μM and incubate for 48 h. 200 μL of fresh media was added together with 20 μL of PrestoBlue cell viability reagent and evaluated on an EnspireMultilabel Plate Reader after 30 minutes of incubation.
# A glucuronide prodrug of a commercial anticancer drug, SN-38, was used. […] Further, hepatocellular carcinoma (HCC) is a condition successfully addressed using tools for localized drug delivery, but solitary drugs are currently accommodated for this mode of delivery.
# Hepatocytes were seeded on the biocatalytic film (PLL/PMA)2.5/β-Glu/(PGA/PMA)2 and allowed to adhere overnight before refreshing the media and adding the (pro)drug at 1 μM.
# HepG2 [2] = test system: HepG2
# Protocol: as §1
# HepG2 [3] = assay: Cell viability in three sequentially connected perfusion chambers, site-specific delivery (FIG. 25); assay type: cell-based; settings: for viability of cells reduced to: 1 μM, 4 h flow, further 48 h culture
# Text: For the evaluation of drug delivery to subsequent chambers tubings were connected so that the flow of solution would enter the first chamber containing PEMs with enzyme and subsequent flow to chamber 2 and chamber 3 with cell culture on TCPS.
# It is assumed that when the drug is synthesized within the coating immediately underneath the cultured cells, through increased local concentration of the drug, the synthesized therapeutic would exert a higher local effect in adhering cells as compared to the cells growing “downstream”. […] Outlet from chamber 1 was connected to the inlet for chamber 2, and in turn, outlet of chamber 2 was connected to the inlet of chamber 3. Hepatocytes were seeded in all three chambers, but only the cells in chamber 1 were cultured on biocatalytic coatings. Solution of SN-38 glucuronide (1 μM in cell culture media) was administered to the interconnected perfusion chambers at constant shear stress for 4 h. Subsequently, the perfusion chambers were flushed with (pro)drug-free media and the cells were cultured for a further 48 h, prior to the assessment of the cell viability.
# The viability of cells cultured on biocatalytic coatings was reduced to ˜30% verifying a pronounced therapeutic response achieved via SMEPT under flow conditions. Viability of cells in chamber two was reduced to ˜60% thus being much higher than that for cells cultured on biocatalytic coatings. Taking into account dose response of HepG2 cells to SN-38, viability difference between 30% and 60% corresponds to ˜10-fold difference in the concentration of the drug used for the treatment. […] It is therefore highly likely that local therapeutic effect would exceed that at “downstream” location to a greater extent than illustrated in FIG. 25. Our data provide experimental proof of the site-specific drug delivery achieved via SMEPT and thus, illustrate therapeutic advantage associated with this technique.
# cells cultured on μS PVA = assay: Viability of cells on μS PVA hydrogels with enzyme and/or prodrug (FIG. 17); assay type: cell-based; settings: full SMEPT conditions: μS PVA with immobilized enzyme and 1 μM SN-38 glucuronide
# Text: FIG. 17: Viability of cells on μS hydrogels with enzyme and/or prodrug.
# HepG2 [4] = settings: previously shown by the applicants; cited from earlier work
# b-Galactosidase = test system: b-Galactosidase
# Protocol: Microstructured PVA hydrogels were assembled using polymer solutions containing b-Galactosidase (1 g/L), stabilized using 0.5 M sodium sulfate and incubated in PBS for 1 h prior analysis. We used a substrate for b-Gal conversion of which affords nitric oxide (NO), a potent and multi-functional signaling and therapeutic molecule. This radical—molecule has a very short half-life and is rapidly converted into nitrite/nitrate, and the latter are conventionally used to quantify the levels of generated nitric oxide. Analysis of nitrite is conducted via a Griess assay, i.e. a colorimetric test establishing a linear correlation between the concentration of nitrite and absorbance at 530 nm; cf. FIG. 31.
# b-Gal-NONOate was administered onto the enzyme-functionalized hydrogels at varied concentrations and incubated for 30 min, upon which the levels of […] were quantified via the Griess assay.
# HepG2 [5] = assay: Cellular internalization of in situ generated fluorescent product, flow cytometry (FIG. 4); assay type: cell-based; settings: for levels of cellular fluorescence (cargo internalization): enzyme in μS PVA hydrogel, versus solution based conversion; for levels of cellular fluorescence (cargo internalization) / fluorescence of cultured cells: 2.5 μg/mL, 24 h; for fluorescence of cultured cells: prodrug in absence of the enzyme
# Protocol: FIG. 4. Utility of SMEPT in generation and cellular internalization of in situ produced product is verified through quantification of fluorescence of hepatic cells cultured on the μS PVA hydrogels. […] Experimental conditions: (A) 1 g/L enzyme in the polymer solution; initial concentration of fluorescein diglucuronide, 2.5 μg/mL; incubation time 24 h; (B) 1 g/L enzyme in the polymer solution; initial concentration of fluorescein diglucuronide 0.25 (top) and 0.025 (bottom) […].
# Towards this goal, hydrogels were prepared using solutions of PVA supplemented with a synthetic polypeptide, poly-L-lysine (PLL). […] Enzyme- and PLL-containing PVA hydrogels were assembled as described above, after which time μS thin films were used as substrates for adhesion and proliferation of a model cell line, HepG2. […] Furthermore, advanced efforts in engineering of liver tissue require co-culturing of mammalian cells (e.g. hepatocytes and Kupffer cells), a challenge which is successfully addressed using μS and micro-patterned substrates. These notions together justify the use of a hepatic cell line and μS PVA hydrogels for the development of SMEPT.
# Initial, internalization of a fluorescent reporter molecule produced via SMEPT and via a solution-based conversion was compared. To achieve this, the cells were seeded on μS PVA hydrogels and were allowed 24 h for attachment, after which time the media was changed to fresh media and, for solution based prodrug conversion, equivalent amount of the enzyme as that contained within μS PVA hydrogels was administered to the cultured cells. At this point, the samples were charged with fluorescein di-glucuronide to a 2.5 μg/mL concentration (3.65 μM). Upon 24 h incubation, fluorescence of the harvested cells was quantified using flow cytometry. […] We note that solution based prodrug conversion is used herein only as a measure to verify protein activity and utility of SMEPT. In the human body, β-glucuronidase has a limited spread and an activity markedly lower as compared to bacterial copy used in this study. The latter notion provides for a low level of “background” prodrug conversion and contributes to specificity of drug delivery achieved with the use of β-glucuronidase and glucuronide prodrugs, as documented for ADEPT and inherited by SMEPT.
# For further characterization of SMEPT, the time course of cellular internalization of the in situ generated fluorescent reporter product was followed at two concentrations of the fluorogenic pro-drug, 0.025 and 0.25 μg/mL (36.5 and 365 nM, respectively). At specified time points, fluorescence of the detached cells was quantified using flow cytometry, FIG. 19B. […] Further to this, at each time point, higher pro-drug concentration affords a higher level of fluorescence registered in the cultured cells, i.e. a greater amount of internalized cargo. Together, these two graphs present time- and dose-dependent internalization of reporter cargo and illustrate the tools of control offered by SMEPT for substrate mediated drug delivery.
# b-glucuronidase = target: T1, b-glucuronidase (Escherichia coli, UniProt P05804); assay: Prodrug conversion in flow by biocatalytic LbL films in perfusion chambers (FIG. 23); assay type: biochemical; settings: constant flow
# T1 construct: purchased
# Protocol: For evaluation of the enzymatic activity the prodrug fluorescein di-glucuronide, FdG, of 5 μg/mL was added to syringes and connected to the coated perfusion chambers. A syringe pump was used to control the shear stress using 0.15, 0.074, 0.03 dyn/cm^2. An “on demand” conversion of prodrug under flow conditions a syringe with buffer was used as a control. The “on” and “off” was then controlled by the switch of syringes to the given μ-slide chamber.
# For multiple layers of enzyme the PEMs were constructed as (PMA/PLL)4 keeping the total amount of layers constant and adding the enzyme in between each layer of PLL.
# All evaluations were measured out on the PlateReader by collecting aliquots from the outlet tubing during the experiment and transferred to a 96-well pate.
# A unique opportunity associated with multilayered surface coatings relates to the possibility to build films with a desired thickness for which polymer adsorption can be performed to a desired number of layers. Similarly, LbL deposition would allow controlling the amount of enzyme within the thin film through a facile change in the number of protein deposition steps. To show this, polymer coatings were assembled using one or three layers of adsorbed β-Glu keeping the total number of polymer layers constant. […] While a single layer of the enzyme achieved a <[…] concentration of the product, three protein layers suffice for a build-up of product concentration to over 30 nM, all achieved under dynamic, constant flow conditions.
# T1 sequence (P05804 whole entry, the tested form may be a part): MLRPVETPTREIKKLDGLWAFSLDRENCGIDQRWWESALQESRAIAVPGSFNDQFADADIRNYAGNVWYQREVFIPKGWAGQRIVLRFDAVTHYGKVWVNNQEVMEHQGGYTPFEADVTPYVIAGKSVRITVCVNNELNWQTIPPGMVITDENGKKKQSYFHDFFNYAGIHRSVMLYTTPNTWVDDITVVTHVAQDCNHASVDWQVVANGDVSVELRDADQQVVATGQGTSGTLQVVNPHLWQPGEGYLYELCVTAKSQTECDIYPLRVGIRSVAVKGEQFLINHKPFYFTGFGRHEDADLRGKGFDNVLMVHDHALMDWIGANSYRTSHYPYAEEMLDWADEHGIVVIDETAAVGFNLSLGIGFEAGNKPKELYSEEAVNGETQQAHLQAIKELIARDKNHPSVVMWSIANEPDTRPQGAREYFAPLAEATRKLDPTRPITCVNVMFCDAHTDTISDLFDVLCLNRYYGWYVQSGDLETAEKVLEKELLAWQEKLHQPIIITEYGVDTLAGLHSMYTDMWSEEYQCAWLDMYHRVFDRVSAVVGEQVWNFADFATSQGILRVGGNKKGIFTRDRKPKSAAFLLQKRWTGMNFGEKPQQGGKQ
structure (smiles),measurement,setting,value
CCc1c2c(nc3ccc(O)cc13)-c1cc3c(c(=O)n1C2)COC(=O)[C@]3(O)CC [SN-38],reduction in viability of the hepatocytes compared with SMEPT,HepG2 [1],similar
same,cell culture time required for a well-pronounced therapeutic effect,HepG2 [2],at least 48 h
same,time the presence of the drug was required for a pronounced therapeutic effect,HepG2 [2],≥ 4 h
same,difference in the concentration of the drug corresponding to viability difference between 30% and 60%,HepG2 [3]; from dose response of HepG2 cells to SN-38,~10 fold
CCc1c2c(nc3ccc(O[C@@H]4O[C@H](C(=O)O)[C@@H](O)[C@H](O)[C@H]4O)cc13)-c1cc3c(c(=O)n1C2)COC(=O)[C@]3(O)CC [SN-38 glucuronide],cytotoxic effect (viability of cells),cells cultured on μS PVA,cytotoxic effect which is comparable to the active drug SN-38
same,cell viability reduced by,"HepG2 [1]; SMEPT: hepatocytes on β-Glu-containing LbL film, 1 μM, 48 h incubation, compared to control",~80%
same,change in cell viability,"HepG2 [1]; prodrug on (PLL/PMA)4.5 coatings, no enzyme incorporated, 1 μM, 48 h",minor albeit statistically significant decrease in the cell viability
same,reduction in viability of the hepatocytes compared with SMEPT,"HepG2 [1]; solution based EPT: prodrug and enzyme both in solution, enzyme-free LbL films, 1 μM, 48 h",similar
same,decrease in cell viability by,"HepG2 [2]; 1 μM, 4 h flow on biocatalytic film, then static drug-free culture, total 48 h, normalized to cells without (pro)drug",~70%
same,viability of cells reduced to,"HepG2 [3]; chamber 1, cells on biocatalytic coatings",~30%
same,viability of cells reduced to,"HepG2 [3]; chamber two, downstream, no biocatalytic coating",~60%
same,inherent cytotoxic effects on hepatocytes,HepG2 [4],did not have an inherent cytotoxic effects on hepatocytes
[O-]/[N+](=N\O[C@@H]1O[C@H](CO)[C@H](O)[C@H](O)[C@H]1O)N1CCCC1 [b-Gal-NONOate],prodrug conversion/drug production of NO,b-Galactosidase; absence of enzyme,no prodrug conversion/drug production of NO is observed
same,administered dose converted,"b-Galactosidase; within 30 min of incubation, b-Galactosidase PVA hydrogels",approximately 50%
O=C1OC2(c3ccc(O[C@@H]4O[C@H](C(=O)O)[C@@H](O)[C@H](O)[C@H]4O)cc3Oc3cc(O[C@@H]4O[C@H](C(=O)O)[C@@H](O)[C@H](O)[C@H]4O)ccc32)c2ccccc21 [fluorescein di-glucuronide],fluorescence of cells over time,"HepG2 [5]; SMEPT, 0.025 and 0.25 μg/mL, earliest time-point 1 h",pronounced increase in the fluorescence of cells
same,levels of cellular fluorescence (cargo internalization),HepG2 [5]; SMEPT,comparable to that produced by a solution based administration
same,levels of cellular fluorescence (cargo internalization),"HepG2 [5]; SMEPT, listed as fluorescein diglucuronide",comparable levels of fluorescence of cultured cells
same,fluorescence of cultured cells,HepG2 [5],"fluorescence identical to pristine, non-treated cells"
same,fluorescence of cultured cells,HepG2 [5]; listed as fluorescein diglucuronide,negligible change in the fluorescence of cultured cells
same,"amount of product synthesized in unit time, 3 versus 1 layers of adsorbed protein",b-glucuronidase; identical prodrug concentration,approximately 3 ×
same,concentration of the product,b-glucuronidase; single layer of the enzyme,< 10 nm
same,concentration of the product,b-glucuronidase; three protein layers,over 30 nM
